Several values for one entry are separate records, joined by “and”; a condition that tells them apart may be missing. Identical values can stand only once. Like-named read-outs stand apart in the source and are kept apart here.
Experiments:
[1] = cited from earlier work; for share of the total dose eliminated as this metabolite: oral administration of Ivacaftor
CFTR protein = CFTR protein (Homo sapiens, UniProt P13569); details: major human metabolites of Ivacaftor; cited from earlier work
[2] = Redispersibility / DLS particle size of ball milled formulations; type: physicochemical; details: after ball milling and lyophilization
Method: Ivacaftor was ball milled in the presence of the excipients used for the preparation of solid dispersion. Crystalline Lumacaftor was ball milled in the absence of complexation agent (Luviscol VA64) and pharmaceutically acceptable excipient (SDS) and in the presence of them. Ball milling parameters were the following: • Speed: 500 rpm • Milling time: 1 hour • Number of the balls: 25 pcs with 10 mm diameter • Milling vessel's material: […] • Quantity of the milled samples: 100 mg API equivalent mass in 12 mL Milli-Q water
After the milling, the vessel was washed out with 5 mL Milli-Q water. The products were frozen on salted ice and then it was lyophilized using a freeze-drier equipped with −110° C. ice condenser, with a vacuum pump. The material and in-vitro properties of the resulted formulations were compared to the complex Lumacaftor and Ivacaftor formulations.
Particle size of the formulations was measured by DLS technique in reconstituted dispersion/solution.

[3] = cited from earlier work
[4] = system: plasma proteins, primarily albumin; details: cited from earlier work
[5] = cited from earlier work; remark: listed apart in the source
[6] = cited from earlier work; for median (range) tmax: multiple oral dose of Ivacaftor in combination with Lumacaftor, fed state; for exposure with fat-containing foods relative to fasting state: single dose of Lumacaftor/Ivacaftor
[7] = system: colorectal adenocarcinoma (Caco-2) cell system; details: cited from earlier work
CYP3A = details: in-vitro and clinical studies; cited from earlier work
[8] = Gastro-intestinal tract simulated dissolution test (fasted/FaSSIF and fed/FeSSIF); type: physicochemical; details: for increase of Ivacaftor dissolution / apparent solubility in FeSSIF condition: FeSSIF vs FaSSIF
Method: Gastro-intestinal tract simulated drug dissolution tests were performed by dispersing the blended pharmaceutical combination composition described above in purified water. The dispersion contained 1 mg/mL Lumacaftor and 0.625 mg/mL Ivacaftor (identical mixture to ORKAMBI®). After 30 minutes holding time, simulated gastric fluid (SGF V2) was added to dispersion in order to set-up the pH to 1.6 (fasted state simulation) or FeSSIF buffer to increase the pH to 5.8 (fed state simulation). After 60 minutes holding time, the pH of the fasted state simulated dispersion was set-up to pH=6.5 adding maleic acid solution. FaSSIF solution was also added to the dispersion to ensure the fasted condition in the intestine simulation. In case of fed state simulation FeSSIF solution was added to the dispersion.
The dissolved amount of Lumacaftor and Ivacaftor from the blended pharmaceutical combination composition was measured by RP-HPLC after filtration with 0.1 μm pore size filter at different time points. Dissolution of Ivacaftor and Lumacaftor from the blended and granulated complex formulation was instantaneous, within 5 minutes more than 85% of the Ivacaftor and Lumacaftor dissolved from the pharmaceutical composition of present invention both in fasted and fed state simulated condition. (FIG. 3).

[9] = Comparative apparent solubility test (100 nm filtration, UV-VIS or RP-HPLC); type: physicochemical; details: ultrapurified water, thermodynamic from solid, FIG. 17, read-out: comparative apparent solubility of Ivacaftor formulations
Method: The apparent solubility was measured by UV-VIS spectroscopy or RP-HPLC at room temperature. The samples were dispersed in ultrapurified water in 1-20 mg/mL active ingredient equivalent concentration range. The resulting solutions were filtered by 100 nm disposable syringe filter. The active ingredient content in the filtrate was measured by UV-Vis spectrophotometry or RP-HPLC and the apparent solubility was calculated. The filtrate may contain particles which could not be filtrated out using 100 nm pore size filter.

[10] = single 150 mg oral dose, healthy volunteers, fed state

Sequence of CFTR protein (P13569 whole entry): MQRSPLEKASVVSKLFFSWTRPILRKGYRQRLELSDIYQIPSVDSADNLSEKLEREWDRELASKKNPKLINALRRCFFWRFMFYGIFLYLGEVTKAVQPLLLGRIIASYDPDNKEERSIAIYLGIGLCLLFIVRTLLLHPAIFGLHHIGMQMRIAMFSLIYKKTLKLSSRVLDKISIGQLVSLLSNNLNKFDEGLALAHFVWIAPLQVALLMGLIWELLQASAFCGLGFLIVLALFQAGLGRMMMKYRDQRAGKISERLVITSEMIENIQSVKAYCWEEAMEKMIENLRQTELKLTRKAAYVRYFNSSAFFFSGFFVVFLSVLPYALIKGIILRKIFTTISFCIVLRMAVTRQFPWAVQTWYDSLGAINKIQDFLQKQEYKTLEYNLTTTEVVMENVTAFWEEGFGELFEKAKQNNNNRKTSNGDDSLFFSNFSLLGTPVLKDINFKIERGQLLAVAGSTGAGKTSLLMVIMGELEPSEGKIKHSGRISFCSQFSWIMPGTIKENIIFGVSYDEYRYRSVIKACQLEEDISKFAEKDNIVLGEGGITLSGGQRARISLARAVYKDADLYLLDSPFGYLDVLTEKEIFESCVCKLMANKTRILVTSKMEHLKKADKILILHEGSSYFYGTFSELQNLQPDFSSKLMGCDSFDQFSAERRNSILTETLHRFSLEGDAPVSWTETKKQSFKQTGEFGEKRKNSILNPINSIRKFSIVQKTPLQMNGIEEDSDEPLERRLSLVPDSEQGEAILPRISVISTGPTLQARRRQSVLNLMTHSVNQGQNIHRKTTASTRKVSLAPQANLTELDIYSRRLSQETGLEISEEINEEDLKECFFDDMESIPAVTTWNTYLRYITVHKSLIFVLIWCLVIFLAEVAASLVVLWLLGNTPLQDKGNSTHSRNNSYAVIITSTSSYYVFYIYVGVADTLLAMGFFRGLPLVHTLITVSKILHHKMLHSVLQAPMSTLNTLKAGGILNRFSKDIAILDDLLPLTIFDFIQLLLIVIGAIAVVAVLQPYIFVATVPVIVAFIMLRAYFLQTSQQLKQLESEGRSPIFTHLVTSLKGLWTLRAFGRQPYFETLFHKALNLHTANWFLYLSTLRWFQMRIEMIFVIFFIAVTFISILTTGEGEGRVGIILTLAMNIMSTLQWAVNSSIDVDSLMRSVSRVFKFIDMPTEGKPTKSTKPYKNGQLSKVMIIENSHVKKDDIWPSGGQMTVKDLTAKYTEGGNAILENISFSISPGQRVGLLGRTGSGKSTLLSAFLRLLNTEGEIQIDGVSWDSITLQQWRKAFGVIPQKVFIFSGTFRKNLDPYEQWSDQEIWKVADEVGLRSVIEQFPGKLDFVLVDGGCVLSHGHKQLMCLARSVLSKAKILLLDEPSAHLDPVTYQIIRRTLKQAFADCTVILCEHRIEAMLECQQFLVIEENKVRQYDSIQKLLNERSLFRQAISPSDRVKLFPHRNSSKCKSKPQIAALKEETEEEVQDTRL

## CC(C)(C)c1cc(C(C)(C)CO)c(O)cc1NC(=O)c1c[nH]c2ccccc2c1=O [M1]
[1]
  share of the total dose eliminated as this metabolite: 22%
CFTR protein
  potency relative to Ivacaftor: approximately one-sixth

## Cc1ccc(NC(=O)C2(c3ccc4c(c3)OC(F)(F)O4)CC2)nc1-c1cccc(C(=O)O)c1 [ball milled crystalline Lumacaftor]
[2]
  redispersibility in purified water: hardly redispersible

## Cc1ccc(NC(=O)C2(c3ccc4c(c3)OC(F)(F)O4)CC2)nc1-c1cccc(C(=O)O)c1 [Lumacaftor]
[3]; water and buffer solutions of pH 1.0 to pH 8.0
  solubility: practically insoluble
[4]
  bound to plasma proteins: approximately 99%
[5]; 200 mg every 24 hours for 28 days, CF patients, fed state
  apparent volume of distribution, mean (±SD): 86.0 (69.8) L
[5]; Lumacaftor and its metabolites
  total radioactivity recovered in the urine: 8.6%
[5]; fed state
  median (range) time of the maximum concentration (tmax): approximately 4.0 (2.0, 9.0) hours
[5]; fed vs fasted
  increase of exposure when given with fat containing food: 1.6-to 2.0 fold
[5]; humans
  excreted unchanged in the feces: 51%
[5]; in-vitro and in vivo data
  main metabolic route: mainly metabolized via oxidation and glucuronidation
[5]; of total radioactivity
  recovered in urine as unchanged parent: 0.18%
[5]; patients with CF
  half-life: approximately 26 hours
[6]
  median (range) tmax: approximately 4.0 hours
  exposure with fat-containing foods relative to fasting state: approximately 2 times
[7]
  permeability in Caco-2 cell system: high permeability

## CC(C)(C)c1cc(C(C)(C)C)c(NC(=O)c2c[nH]c3ccccc3c2=O)cc1O [Ivacaftor, N-(2,4-di-tert-butyl-5-hydroxyphenyl)-1,4-dihydro-4oxoquinoline-3-carboxamide]
[3]; water
  solubility in water: < 0.05 microgram/mL
CYP3A
  main metabolic route: primarily metabolized by CYP3A
[6]
  median (range) tmax: approximately 4.0 hours
  exposure with fat-containing foods relative to fasting state: approximately 3 times
[1]; 150 mg every 12 hours for 7 days, healthy volunteers, fed state
  apparent volume of distribution, mean (±SD): 353 (122) L
[1]; every 12-hour dosing
  accumulation ratio: 2.2 to 2.9
  time to steady-state plasma concentrations: 3 to 5 days
[1]; fed state
  median (range) tmax: approximately 4.0 (3.0; 6.0) hours
[1]; humans, fed vs fasted
  increase of exposure when given with food containing fat (food effect): 2-to 4 fold and 2-4 fold
[1]; oral administration
  fraction of dose eliminated in the feces after metabolic conversion: 87.8%
  urinary excretion as unchanged parent: negligible
[1]; [10]
  AUC, mean (±SD): 10,600 (5260) ng*hr/mL
  Cmax, mean (±SD): 768 (233) ng/mL
  time of peak plasma concentrations (tmax): approximately 4 hours
[1]; single dose
  apparent terminal half-life: approximately 12 hours

## CC(C)(C)c1cc(C(C)(C)C)c(NC(=O)c2c[nH]c3ccccc3c2=O)cc1O [ball milled crystalline Ivacaftor]
[8]
  increase of Ivacaftor dissolution / apparent solubility in FeSSIF condition: 3 fold

## CC(C)(C)c1cc(C(C)(C)C(=O)O)c(O)cc1NC(=O)c1c[nH]c2ccccc2c1=O [M6]
[1]
  share of the total dose eliminated as this metabolite: 43%
CFTR protein
  potency relative to Ivacaftor: less than one-fiftieth

## Cc1ccc(NC(=O)C2(c3ccc4c(c3)OC(F)(F)O4)CC2)nc1-c1cccc(C(=O)O)c1 [crystalline Lumacaftor]
[8]; both in FaSSIF and FeSSIF media
  apparent solubility of Lumacaftor: below 10%

## CC(C)(C)c1cc(C(C)(C)C)c(NC(=O)c2c[nH]c3ccccc3c2=O)cc1O [crystalline Ivacaftor]
[8]
  increase of Ivacaftor dissolution / apparent solubility in FeSSIF condition: 5 fold
[9]
  solubility: < 100 µg/mL
